These results are taken from US12156879B2, “Combining BACE1 inhibitors with mGluR agonists for Alzheimer's disease therapy” (University of Connecticut, priority 2019, dated 2024).

Structures are written as SMILES.

Series [1] concerns layer V pyramidal neurons. Conditions: mice treated with the BACE1 inhibitor; cited from earlier work.
In a further series the test system is hippocampal LTP. Conditions: mice treated with the BACE1 inhibitor; cited from earlier work.
Series [2] concerns mice (WT BACE1+/+ or BACE1-null). The series can be described thus: Open field test. Type of series: in vivo. How it is done: (§1) Treatment usually last 2-4 months. […] For behavioral assays, Ro0711401 was deliver via IP injection at 12-hour intervals for 6-8 weeks. The mGluR1/5 positive allosteric modulator CHPG was mixed in aCSF and used during recording LTP.
Each subject was released in the middle of the arena and observed for 10 minutes. Performance in the open field was recorded by a computer-based video tracking system (Any maze™ software, San Diego instruments, USA). Activity measures included distance traveled, percentage of time spent in corners vs. the center of the arena, and speed of movement during active exploration. The number of entries to the central zone of the open field was also recorded. Statistics were calculated by Student's t tests.

Series [3] concerns synaptic proteins PSD95, mGluR2, Synaptophysin in synaptosome fraction. The series can be described thus: Western analysis of synaptic proteins in synaptosomes from treated animals. Type of series: in vivo, mice. The note with it: chronic treatment, Lanabecestat 0.5 mg/kg or Verubecestat 3 mg/kg. How it is done: (§2) C57BL/6 mice of either sex (4-6 months of age; n=6 per group) received vehicle or BACE1 inhibitors, Lanabecestat (AZD3293) solution at 0.25 mg/kg or 0.5 mg/kg) via oral gavage (Eketjall et al., 2016b). For Verubescstat, 3mg/kg dose was used and delivered orally via gavage (Kennedy et al., 2016). Treatment usually last 2-4 months. The mGluR1 positive allosteric modulator Ro0711401 at 10 mg/kg was given as intraperitoneal injections (IP) 1 hour before decapitation for LTP experiments (Notartomaso et al., 2013). For behavioral assays, Ro0711401 was deliver via IP injection at 12-hour intervals for 6-8 weeks. The mGluR1/5 positive allosteric modulator CHPG was mixed in aCSF and used during recording LTP. The drug was applied in a bath during baseline recording for at least for 30 minutes before HFS stimulation was applied and LTP was recorded (Le Duigou and Kullmann, 2011).
Synaptosome isolation was performed using Thermo Scientific Syn-PER Synaptic Protein Extraction Reagent (cat #87793) from whole brain samples. Briefly, mice were sacrificed by live decapitation, and rapidly dissected hippocampi were homogenized in Syn-Per reagent, ˜1 ml/100 mg tissue. Samples were then centrifuged at 1200×g for 10 min. The resulting supernatant was then centrifuged at 15,000×g for 20 min. Pellets (synaptosomes) were resuspended in buffer B ([…] in 6 mm Tris, pH 8.0) with 1% SDS, briefly sonicated, and frozen in −80° C. Total protein extraction was performed according to previously-described procedures (Hu et al., 2007). Brain samples were homogenized in radioimmunoprecipitation assay (RIPA) buffer (50 mM Tris-HCl, pH 7.4, 1% NP-40, 0.25% sodium deoxycholate, 150 mM NaCl, 1 mM EDTA, 1 mM NaF, 1 mM Na3VO4, and a protease inhibitor cocktail [Roche]) and centrifuged at 13,200 rpm for 90 min. Equal amounts of protein were resolved on a NuPAGE Bis-Tris gel (Invitrogen) and transferred onto nitrocellulose membranes (Invitrogen). Subsequently, blots were incubated with primary antibodies 1:1,000 mGluR1 [AB_12551; Cell Signaling]; 1:1,000 PSD-95 [AB_36233; Cell Signaling]; 1:5,000 GluR1 [AB_05-855; Upstate]; 1:1,000 GluR2/3 [AB_07-598; Upstate]; 1:1,000 GluR4 [AB_06-308; Upstate]; 1:1,000 Homer [AB_8231; Cell Signaling]; 1:500 TMEM25 [AB_24361-1-AP; ProteinTech Group]; 1:1,000 Bassoon [AB_141021; Synaptic Systems]; 1:10,000 Actin [AB_A5441; Sigma], overnight at 4° C. After extensive washing, blots were reacted with HRP-conjugated secondary antibodies and visualized using enhanced chemiluminescence (Thermo Scientific).

The test system of the next series is WT (BACE1+/+) mice. The series can be described thus: Fear conditioning studies. Type of series: in vivo. Conditions: Lanabecestat 0.5 mg/kg or Verubecestat 3 mg/kg, N=10.
The subject of series [4] is mice (WT BACE1+/+ or BACE1-null). The series can be described thus: Y maze spontaneous alternation task. The class given is in vivo.
Description: as §1
The symmetrical Y maze made of acrylic consists of three arms separated by 120 degrees. Each arm is 40 cm long, 17 cm high, 4 cm wide at the bottom and 13 cm wide at the top. Each mouse was placed in the center of the Y maze and was allowed to explore freely through the maze during a 5 min session. The sequence and total number of arms entered was recorded. Arm entry was considered to be completed when the hind paws of the mouse had been completely placed in the arm. Percentage of alternations is the number of triads containing entries into all three arms divided by the maximum possible alternations (the total number of arms entered minus 2)×100. Statistics were calculated by Student's t tests.

The conditions of series [5]: cited from earlier work.
Series [6] relates to Schaffer collateral (SC)-CA1 synapses. As to the kind of experiment: LTP recordings on horizontal hippocampal slices (fEPSP amplitude after high-frequency stimulation). The class given is in vivo, mice. How it is done: as §2
Acute brain slices were prepared as previously described (Hu et al., 2018). Briefly, the mice were decapitated and the brains were immersed in low-calcium artificial cerebrospinal fluid (aCSF) containing (in mM): 125 NaCl, 2.5 KCl, 10 glucose, 25 NaHCO3, 1.25 NaH2PO4, 0.4 L-ascorbic acid, 3 myo-inositol, 2 Na-pyruvate, 3 MgCl2 and 0.1 CaCl2 continuously bubbled with 95% O2 and 5% CO2 (pH≈7.3). Animals were decapitated with a guillotine and the brain was quickly removed to an ice-cold aCSF chamber with constant bubbling of 95% O2 and 5% CO2. Acute horizontal brain slices containing the hippocampus were obtained using a Campden 7000 smz-2 vibratome from 4-7-month-old mice at 350 μm thick. Slices were immediately transferred to an incubation beaker containing normal aCSF (same as the low-calcium aCSF except that 1 mM MgCl2 and 1, 1.2, or 2 mM CaCl2 were used) at 30° C., continuously bubbled with 95% O2 and 5% CO2. Slices were allowed to recover for 1 hour and then were transferred to an MED-64 recording chamber with the same aCSF solution at ≈30° C., maintained by MED ThermoConnector (Automate Scientific) with continuous aCSF perfusion at 2 ml/min.
LTP recordings on hippocampal slices were performed according to previously-described procedures (Shimono et al., 2002; Baba et al., 2003; Itoh et al., 2005). Upon obtaining horizontal hippocampal slices from the brains of mice, the prepared slices were then placed onto the center of an MED probe (MED-P515A; AutoMate™ Scientific) with continuous perfusion of aCSF and bubbling of 95% O2 and 5% CO2. The device has an array arranged in an 8×8 pattern of 64 planar microelectrodes across a hippocampal slice. Each electrode is 20×20 μm with an interelectrode distance of 150 μm. A MED-A64HE1S head amplifier and a MED-A64MD1 main amplifier, run by Mobius software, were used for data acquisition and analysis. SCs to CA1 synapses were typically analyzed for LTP assays. fEPSPs caused by stimulation were recorded at a 20-kHz sampling rate within the CA1 subregion of the hippocampus. Control fEPSPs were recorded for at least 10 min before the conditioning stimulation, using a response ˜50% of the maximum. After a stable baseline was established, LTP was induced with three trains of 100 Hz for 1 s with an intertrain interval F of 20 s. Field potential amplitudes were then measured. Data are expressed as mean±SEM. Synaptic strength was evaluated by measuring changes in the fEPSP amplitude relative to baseline. Statistics were calculated by Student's t tests.

The mark [7] stands for this setting: 12 months old BACE1+/+ mice, ~50 days.
The mark [8] stands for this setting: WT mice, Lanabecestat 0.5 mg/kg ~2 months (FIG. 6).
Where [9] appears, read: WT mice, Lanabecestat 0.5 mg/kg or Verubecestat 3 mg/kg for ~2 months (FIG. 6).

As for `CC#Cc1cncc(-c2cc(Cl)c(C3(C)CC(=O)N(C)C(=N)N3)s2)c1` (centres unmarked) [SCH1682496], the “spine formation in layer V pyramidal neurons” value in series [1] is reported as “reduced”. Also, the “hippocampal LTP” value with hippocampal LTP was “impaired”.
As for `C[C@@]1(c2cc(-c3cncnc3)c(F)cc2F)CCSC(N)=N1` [LY2811376], the “spine formation in layer V pyramidal neurons” value in series [1] is given as “reduced”. Also, the “hippocampal LTP” value in the series with hippocampal LTP is listed as “impaired”.
Turning to `CC#Cc1cncc(-c2ccc3c(c2)[C@@]2(N=C(C)C(N)=N2)[C@]2(CC[C@@H](OC)CC2)C3)c1` [Lanabecestat], in series [2] (setting [7]), the “distance traveled on the open field, BACE1 inhibitor alone” value is listed as “traveled more distances” and the “speed on the open field, BACE1 inhibitor alone” value is listed as “faster”. For the same molecule, the “stay in the corner of the open field area vs mock-treated controls” value in series [2] (BACE1 inhibitor alone, ~50 days) is given as “stayed more in the corner”. Moreover, in series [2] (setting [8]), the speed result is “clear increase” and the total distance covered result is recorded as “clear increase”. Besides, the “exploratory behaviors, time in corners vs center” value in series [2] (WT mice, ~2 months treatment (FIG. 6)) is recorded as “less exploratory behaviors”. Moreover, in series [3], the “PSD95 level in synaptosome fraction” value is recorded as “significant decrease”, the “Synaptophysin level in synaptosome fraction” value is reported as “significant decrease” and the “mGluR2 level in synaptosome fraction” value is “significant decrease”. In addition, in the series on WT (BACE1+/+) mice, the “freezing time, contextual phase” value is “significant reduction” and the “freezing time, cue phase” value is given as “significant reduction”. The “total entry, BACE1 inhibitor alone” value in series [4] (setting [7]) was “more significant”. The “% of spontaneous alteration, BACE1 inhibitor alone vs mock treatment” value in series [4] (12 months old BACE1+/+ mice, ~50 days, Verubecestat 3 mg/kg or Lanabecestat 0.5 mg/kg oral, not statistically significant) is recorded as “reduction”. In series [4] (setting [9]), the “number of arm entries” value was “clearly reduced” and the spontaneous alternations result is listed as “clearly reduced”. The brain penetrability entry in series [5] is listed as “brain-penetrable”. Besides, the “LTP reduction at lower dose” value in series [6] (WT mice, Lanabecestat 0.25 mg/kg, compared with 0.5 mg/kg) was “significantly weaker LTP reduction”. In addition, the “LTP at SC-CA1 synapses” value in series [6] (WT mice, daily oral Verubecestat 3 mg/kg or Lanabecestat 0.5 mg/kg for 2-4 months) is reported as “strongly suppressed”. Besides, the “potentiation at 30 minutes post-stimulation” value in series [6] (slices from 4-6-month-old WT mice, Lanabecestat 0.5 mg/kg or Verubecestat 3 mg/kg, control slices 245.9±0.9864%) was found to be 105.6±0.6137%.
